According to PubChem BioAssay AID1963977 (Molecular Pharmacology Branch, DTP, NCI, 2024):

Test system: 624824-186-R-J3-PDC multicell spheroids, viability
Assay: Anticancer human tumor 624824-186-R-J3-PDC patient-derived colon adenocarcinoma cell line growth inhibition [PI3K]
Conditions: for IC50: curve of first compound; for viability, T/C: stronger effect = lower value
Outline: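 Agents were dosed from a top concentration near clinical Cmax (otherwise 10 microM) in half-log decrements, alone or combined with PI3K inhibitors. The spheroids contain tumor cells plus endothelial (HUVEC) and MSC stroma; viability is measured.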

[1] = second compound 0.0316 µM, first compound 0.0316 µM
[2] = second compound 0.0316 µM, first compound 0.1 µM
[3] = second compound 0.1 µM, first compound 0.0316 µM
[4] = second compound 0.1 µM, first compound 0.1 µM
[5] = second compound 0.316 µM, first compound 0.0316 µM
[6] = second compound 0.316 µM, first compound 0.1 µM
[7] = second compound 1 µM, first compound 0.0316 µM
[8] = second compound 1 µM, first compound 0.1 µM
[9] = second compound 3.16 µM, first compound 0.0316 µM
[10] = second compound 3.16 µM, first compound 0.1 µM
[11] = second compound 10 µM, first compound 0.0316 µM
[12] = second compound 10 µM, first compound 0.1 µM
[13] = second compound 0.0316 µM, first compound 0.316 µM
[14] = second compound 0.0316 µM, first compound 1 µM
[15] = second compound 0.0316 µM, first compound 3.16 µM
[16] = second compound 0.0316 µM, first compound 10 µM
[17] = second compound 0.1 µM, first compound 0.316 µM
[18] = second compound 0.1 µM, first compound 1 µM
[19] = second compound 0.1 µM, first compound 3.16 µM
[20] = second compound 0.1 µM, first compound 10 µM
[21] = second compound 0.316 µM, first compound 0.316 µM
[22] = second compound 0.316 µM, first compound 1 µM
[23] = second compound 0.316 µM, first compound 3.16 µM
[24] = second compound 0.316 µM, first compound 10 µM
[25] = second compound 1 µM, first compound 0.316 µM
[26] = second compound 1 µM, first compound 1 µM
[27] = second compound 1 µM, first compound 3.16 µM
[28] = second compound 1 µM, first compound 10 µM
[29] = second compound 3.16 µM, first compound 0.316 µM
[30] = second compound 3.16 µM, first compound 1 µM
[31] = second compound 3.16 µM, first compound 3.16 µM
[32] = second compound 3.16 µM, first compound 10 µM
[33] = second compound 10 µM, first compound 0.316 µM
[34] = second compound 10 µM, first compound 1 µM
[35] = second compound 10 µM, first compound 3.16 µM
[36] = second compound 10 µM, first compound 10 µM
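Also: spheroids exposed to agents for seven days before luminescence read.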
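For viability, T/C in this document: luminescent signal used as a stand-in for spheroid viability; percent viability relative to DMSO vehicle control wells taken as 100%.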

With CC(=O)c1c(C)c2cnc(Nc3ccc(N4CCNCC4)cn3)nc2n(C2CCCC2)c1=O + Cc1nc(NC(=O)N2CCCC2C(N)=O)sc1-c1ccnc(C(C)(C)C(F)(F)F)c1 as the molecule, how does the IC50 (second compound 0.0316 µM) read?
Its IC50 is greater than 100 nM.

And the IC50 (second compound 0.1 µM)?
The IC50 was greater than 100 nM.

What about the IC50 (second compound 0.316 µM) of the same molecule?
Its IC50 is greater than 100 nM.

What about the IC50 (second compound 1 µM) of the same molecule?
The IC50 was greater than 100 nM.

What about the IC50 (second compound 3.16 µM) of the same molecule?
Its IC50 is greater than 100 nM.

What about the IC50 (second compound 10 µM) of the same molecule?
The IC50 was 63.9 nM.

And the viability, T/C (second compound 0.0316 µM, first compound 0.000316 µM)?
Its viability, T/C is 109%.

And the viability, T/C (second compound 0.0316 µM, first compound 0.001 µM)?
The viability, T/C was 102%.

And the viability, T/C (second compound 0.0316 µM, first compound 0.00316 µM)?
The viability, T/C was 119%.

What about the viability, T/C (second compound 0.0316 µM, first compound 0.01 µM) of the same molecule?
The viability, T/C was 99.5%.

What about the viability, T/C [1] of the same molecule?
Its viability, T/C is 112%.

And the viability, T/C [2]?
Its viability, T/C is 101%.

And the viability, T/C (second compound 0.1 µM, first compound 0.000316 µM)?
The viability, T/C was 97.3%.

And the viability, T/C (second compound 0.1 µM, first compound 0.001 µM)?
Its viability, T/C is 104%.

And the viability, T/C (second compound 0.1 µM, first compound 0.00316 µM)?
Its viability, T/C is 113%.

What about the viability, T/C (second compound 0.1 µM, first compound 0.01 µM) of the same molecule?
The viability, T/C was 103%.

And the viability, T/C [3]?
Its viability, T/C is 107%.

What about the viability, T/C [4] of the same molecule?
The viability, T/C was 106%.

And the viability, T/C (second compound 0.316 µM, first compound 0.000316 µM)?
The viability, T/C was 112%.

What about the viability, T/C (second compound 0.316 µM, first compound 0.001 µM) of the same molecule?
The viability, T/C was 107%.

What about the viability, T/C (second compound 0.316 µM, first compound 0.00316 µM) of the same molecule?
Its viability, T/C is 114%.

What about the viability, T/C (second compound 0.316 µM, first compound 0.01 µM) of the same molecule?
Its viability, T/C is 110%.

What about the viability, T/C [5] of the same molecule?
The viability, T/C was 104%.

What about the viability, T/C [6] of the same molecule?
Its viability, T/C is 109%.

What about the viability, T/C (second compound 1 µM, first compound 0.000316 µM) of the same molecule?
The viability, T/C was 106%.

What about the viability, T/C (second compound 1 µM, first compound 0.001 µM) of the same molecule?
The viability, T/C was 99.1%.

And the viability, T/C (second compound 1 µM, first compound 0.00316 µM)?
Its viability, T/C is 109%.

And the viability, T/C (second compound 1 µM, first compound 0.01 µM)?
Its viability, T/C is 94.8%.

And the viability, T/C [7]?
The viability, T/C was 101%.

What about the viability, T/C [8] of the same molecule?
The viability, T/C was 93.4%.

What about the viability, T/C (second compound 3.16 µM, first compound 0.000316 µM) of the same molecule?
Its viability, T/C is 85.7%.

And the viability, T/C (second compound 3.16 µM, first compound 0.001 µM)?
The viability, T/C was 95.7%.

What about the viability, T/C (second compound 3.16 µM, first compound 0.00316 µM) of the same molecule?
The viability, T/C was 97.8%.

And the viability, T/C (second compound 3.16 µM, first compound 0.01 µM)?
Its viability, T/C is 85.1%.

And the viability, T/C [9]?
The viability, T/C was 85.3%.

What about the viability, T/C [10] of the same molecule?
Its viability, T/C is 62.9%.

What about the viability, T/C (second compound 10 µM, first compound 0.000316 µM) of the same molecule?
Its viability, T/C is 71.8%.

What about the viability, T/C (second compound 10 µM, first compound 0.001 µM) of the same molecule?
The viability, T/C was 73.1%.

And the viability, T/C (second compound 10 µM, first compound 0.00316 µM)?
Its viability, T/C is 76%.

What about the viability, T/C (second compound 10 µM, first compound 0.01 µM) of the same molecule?
Its viability, T/C is 64.6%.

What about the viability, T/C [11] of the same molecule?
The viability, T/C was 59.7%.

And the viability, T/C [12]?
The viability, T/C was 43.9%.

For CCCS(=O)(=O)Nc1ccc(F)c(C(=O)c2c[nH]c3ncc(-c4ccc(Cl)cc4)cc23)c1F + Cc1nc(NC(=O)N2CCCC2C(N)=O)sc1-c1ccnc(C(C)(C)C(F)(F)F)c1, which IC50 (second compound 0.0316 µM) is on record?
The IC50 was 5140 nM.

And the IC50 (second compound 0.1 µM)?
The IC50 was 4630 nM.

What about the IC50 (second compound 0.316 µM) of the same molecule?
The IC50 was 3750 nM.

And the IC50 (second compound 1 µM)?
Its IC50 is 1990 nM.

And the IC50 (second compound 3.16 µM)?
The IC50 was 525 nM.

And the IC50 (second compound 10 µM)?
The IC50 was 86.6 nM.

What about the viability, T/C [1] of the same molecule?
Its viability, T/C is 108%.

What about the viability, T/C [2] of the same molecule?
Its viability, T/C is 92.1%.

What about the viability, T/C [13] of the same molecule?
The viability, T/C was 103%.

What about the viability, T/C [14] of the same molecule?
The viability, T/C was 92.6%.

And the viability, T/C [15]?
The viability, T/C was 80.5%.

And the viability, T/C [16]?
The viability, T/C was 10.2%.

What about the viability, T/C [3] of the same molecule?
The viability, T/C was 95.6%.

What about the viability, T/C [4] of the same molecule?
The viability, T/C was 88.1%.

And the viability, T/C [17]?
The viability, T/C was 94.6%.

And the viability, T/C [18]?
The viability, T/C was 82.1%.

And the viability, T/C [19]?
The viability, T/C was 69.7%.

What about the viability, T/C [20] of the same molecule?
Its viability, T/C is 12.8%.

And the viability, T/C [5]?
The viability, T/C was 115%.

And the viability, T/C [6]?
Its viability, T/C is 87.9%.

What about the viability, T/C [21] of the same molecule?
Its viability, T/C is 80.7%.

And the viability, T/C [22]?
The viability, T/C was 73.7%.

What about the viability, T/C [23] of the same molecule?
Its viability, T/C is 68.4%.

What about the viability, T/C [24] of the same molecule?
The viability, T/C was 14.6%.

And the viability, T/C [7]?
Its viability, T/C is 84.6%.

And the viability, T/C [8]?
Its viability, T/C is 89.8%.

And the viability, T/C [25]?
The viability, T/C was 62%.

And the viability, T/C [26]?
The viability, T/C was 65.2%.

What about the viability, T/C [27] of the same molecule?
The viability, T/C was 43.7%.

And the viability, T/C [28]?
The viability, T/C was 13.7%.

What about the viability, T/C [9] of the same molecule?
Its viability, T/C is 77.6%.

What about the viability, T/C [10] of the same molecule?
Its viability, T/C is 64.8%.

And the viability, T/C [29]?
Its viability, T/C is 52%.

And the viability, T/C [30]?
Its viability, T/C is 44.6%.

And the viability, T/C [31]?
Its viability, T/C is 34.7%.

What about the viability, T/C [32] of the same molecule?
Its viability, T/C is 9.51%.

And the viability, T/C [11]?
Its viability, T/C is 57%.

And the viability, T/C [12]?
Its viability, T/C is 50.5%.

And the viability, T/C [33]?
Its viability, T/C is 36.1%.

And the viability, T/C [34]?
Its viability, T/C is 31.8%.

What about the viability, T/C [35] of the same molecule?
The viability, T/C was 26.6%.

What about the viability, T/C [36] of the same molecule?
The viability, T/C was 6.93%.

Which results are given for CNC(=O)c1ccc(N2C(=S)N(c3ccc(C#N)c(C(F)(F)F)c3)C(=O)C2(C)C)cc1F + Cc1nc(NC(=O)N2CCCC2C(N)=O)sc1-c1ccnc(C(C)(C)C(F)(F)F)c1?
IC50 (second compound 0.0316 µM): > 10000 nM; IC50 (second compound 0.1 µM): > 10000 nM; IC50 (second compound 0.316 µM): > 10000 nM; IC50 (second compound 1 µM): > 10000 nM; IC50 (second compound 3.16 µM): > 10000 nM; IC50 (second compound 10 µM): > 10000 nM; viability, T/C [1]: 104%; viability, T/C [2]: 94.4%; viability, T/C [13]: 101%; viability, T/C [14]: 102%; viability, T/C [15]: 107%; viability, T/C [16]: 113%; viability, T/C [3]: 96.9%; viability, T/C [4]: 100%; viability, T/C [17]: 109%; viability, T/C [18]: 98.4%; viability, T/C [19]: 104%; viability, T/C [20]: 104%; viability, T/C [5]: 107%; viability, T/C [6]: 101%; viability, T/C [21]: 117%; viability, T/C [22]: 99.1%; viability, T/C [23]: 113%; viability, T/C [24]: 93%; viability, T/C [7]: 100%; viability, T/C [8]: 96.3%; viability, T/C [25]: 105%; viability, T/C [26]: 101%; viability, T/C [27]: 104%; viability, T/C [28]: 95%; viability, T/C [9]: 91.1%; viability, T/C [10]: 89.4%; viability, T/C [29]: 83.9%; viability, T/C [30]: 77.7%; viability, T/C [31]: 88%; viability, T/C [32]: 85.5%; viability, T/C [11]: 74.3%; viability, T/C [12]: 65.3%; viability, T/C [33]: 69.4%; viability, T/C [34]: 67.8%; viability, T/C [35]: 73.8%; viability, T/C [36]: 70.1%
